The nature of series [1]: Inhibition of Hepatitis C virus NS5B RNA-dependent RNA polymerase. Details: species or system Hepacivirus hominis.
The subject of series [2] is Hepatitis C virus. Briefly: Antiviral activity against Hepatitis C virus assessed as inhibition of viral replication by replicon assay. In kind it is functional, organism-based, Hepacivirus hominis. For orientation: In antiviral work, replicon cells carry a viral genome segment that copies itself.
Series [3] in a line: Competitive inhibition of Hepatitis C virus NS5B RNA-dependent RNA polymerase. Details: species or system Hepacivirus hominis.
Series [4] can be described thus: Cytotoxicity against human HuH7 cells. In kind it is cell-based, Huh-7.
In series [5] the test system is Hepatitis C virus. The series is described as follows: Antiviral activity against Hepatitis C virus genotype 1a infected in human HuH7 cells assessed as inhibition of viral replication by replicon assay. In kind it is functional, organism-based, Hepacivirus hominis. The following applies: subtype 1a, Huh-7.
Series [6] can be described thus: Half life in human liver microsomes. Background: Liver microsomes are vesicles of endoplasmic reticulum, rich in cytochrome P450 enzymes.
Series [7] can be described thus: Half life in monkey liver microsomes. The settings on record: rhesus monkey.
The test system of series [8] is Hepatitis C virus. The series is described as follows: Antiviral activity against Hepatitis C virus genotype 1b infected in human HuH7 cells assessed as inhibition of viral replication by replicon assay. In kind it is functional, organism-based, Hepacivirus hominis. The following applies: Huh-7.
Series [9] deals with Hepatitis C virus. Briefly: Inhibition of Hepatitis C virus genotype 1b NS5B RNA-dependent RNA polymerase. Details: species or system Hepatitis C virus subtype 1b.
For series [10], the system named is Hepatitis C virus. Briefly: Inhibition of Hepatitis C virus genotype 1b NS5B RNA-dependent RNA polymerase M423 mutant. Details: species or system Hepatitis C virus subtype 1b.
For series [11], the system named is Hepatitis C virus. The series is described as follows: Inhibition of Hepatitis C virus con1 NS5B RNA-dependent RNA polymerase. Also noted: species or system Hepacivirus hominis.
Series [12] deals with Hepatitis C virus. Briefly: Antiviral activity against Hepatitis C virus genotype 1b assessed as inhibition of viral replication by replicon assay. In kind it is functional, organism-based, Hepacivirus hominis.
In series [13] the test system is Hepatitis C virus. The series is described as follows: Inhibition of Hepatitis C virus con1 NS5B RNA-dependent RNA polymerase C316Y mutant. Also noted: species or system Hepacivirus hominis.
The nature of series [14]: Inhibition of Hepatitis C virus genotype 1 NS5B RNA-dependent RNA polymerase.
In series [15] the test system is Hepatitis C virus. Briefly: Antiviral activity against Hepatitis C virus genotype 1a assessed as inhibition of viral replication by replicon assay. In kind it is functional, organism-based, Hepacivirus hominis. The settings on record: subtype 1a.
For series [16], the system named is Hepatitis C virus. Briefly: Inhibition of Hepatitis C virus genotype 1b NS5B RNA-dependent RNA polymerase P495L mutant. Details: species or system Hepatitis C virus subtype 1b.

A word on the IC50: it is the point on the concentration scale where inhibition reaches its midpoint. By EC50 is commonly meant the concentration giving half of the maximal effect. Broadly, the Ki is the equilibrium dissociation constant of an inhibitor or competing ligand from its target. The term CC50 denotes the concentration at which the toxic effect on the cells reaches its halfway point. One may read the half-life as how long it takes for the measured level to halve.

As for `Nc1ncnc2c1ccn2[C@@H]1O[C@H](CO)C[C@H]1O`, in series [1], the concentration for half-maximal inhibition (IC50) is 80 nM.

Take `Nc1ccn([C@@H]2O[C@H](CO)C[C@H]2O)c(=O)n1`: the IC50 in series [1] was 80 nM. The compound `O=C(O)/C=C/c1ccc(NC(=O)C2(NC(=O)c3ccc4c(c3)nc(-c3ccoc3)n4C3CCCCC3)CCCC2)cc1` yielded a 50% inhibitory concentration (IC50) in series [1] of 95 nM. Moreover, the EC50 with Hepatitis C virus [2] worked out at 72 nM.

`CO[C@@H]1[C@H](O)[C@@H](CO)O[C@H]1n1cnc2c(O)nc(N)nc21`: 3800 nM corresponded to half-maximal inhibition in series [1] (IC50). On to `[N-]=[N+]=N[C@]1(CO)O[C@@H](n2ccc(N)nc2=O)[C@H](O)[C@@H]1O` [4'-AZIDOCYTIDINE], for which the affinity in series [3], expressed as Ki, was 40 nM.

Turning to `C[C@@]1(O)[C@H](O)[C@@H](CO)O[C@H]1n1cnc2c(=O)[nH]c(N)nc21` [2'-B-METHYL-GUANOSINE], in series [1], a half-maximal response (EC50) required 3500 nM.

The compound `CS(=O)(=O)Nc1ccc2c(c1)S(=O)(=O)N=C(C1=C(O)[C@@H]3[C@H]4CC[C@H](C4)[C@@H]3N(Cc3ccc(F)cc3)C1=O)N2` [SETROBUVIR] showed a half-maximal cytotoxic concentration (CC50) in [4] of 100000 nM. Besides, the values for the EC50 in the series with Hepatitis C virus [5] and in the series with Hepatitis C virus [8] were 52 nM and 3 nM, respectively. The half-life in series [6] and in series [7] was more than 1 h throughout. In turn, `Nc1nc2c(ncn2[C@@H]2O[C@H](CO)C[C@H]2O)c(=O)[nH]1` gave an IC50 in series [1] of 80 nM. With `C[C@@]1(O)[C@H](O)[C@@H](CO)O[C@H]1n1cc(F)c2c(N)ncnc21`, the concentration giving a half-maximal response (EC50) in the series on Hepatitis C virus [2] stood at 70 nM.

Turning to `Nc1nc(O)c2ccn([C@@H]3O[C@H](CO)C[C@H]3O)c2n1`, in series [1], the 50% inhibitory concentration (IC50) turned out to be 80 nM. Consider `C[C@H]1CC[C@H](C(=O)N(c2cc(-c3ccccc3)sc2C(=O)O)[C@H]2CC[C@H](O)CC2)CC1`, for which the IC50 in the series on Hepatitis C virus [9] was 17 nM; in the series on Hepatitis C virus [10], 450 nM. In series [1], `CO[C@@H]1[C@H](O)[C@@H](CO)O[C@H]1n1ccc2c(O)nc(N)nc21` displayed an IC50 of 350 nM. `O=C(O)/C=C/c1ccc(NC(=O)CNC(=O)c2ccc3c(c2)nc(-c2ccoc2)n3C2CCCCC2)cc1` showed a 50% inhibitory concentration (IC50) in series [1] of 280 nM. For the compound `CNC(=O)c1c(-c2ccc(F)cc2)oc2cc(N(CCO)S(C)(=O)=O)c(C3CC3)cc12` [NESBUVIR], the results for the IC50 (in the series on Hepatitis C virus [11]; in the series with Hepatitis C virus [13]; in [14]) were 0.8 nM, 2160 nM and 10 nM, respectively. Also, the figures for the half-maximal effective concentration (EC50) with Hepatitis C virus [12] and in the series with Hepatitis C virus [15] were 9 nM and 5 nM, respectively. Turning to `O=C(O)c1ccc2c(c1)nc(-c1ccc(OCc3cc(N4CCCC4=O)ccc3-c3ccc(Cl)cc3)cc1F)n2C1CCCCC1`, inhibition in the series on Hepatitis C virus [16] was half-maximal at 1500 nM (IC50). Regarding `COC[C@H]1C[C@@](Cn2cccn2)(C(=O)O)N(C(=O)c2ccc(C(C)(C)C)c(OC)c2)[C@H]1c1nccs1` [GSK-625433], the results for the EC50 in the series with Hepatitis C virus [12] and in the series with Hepatitis C virus [15] were 2 nM and 290 nM, respectively. Regarding `CO[C@@H]1[C@H](O)[C@@H](CO)O[C@H]1n1ccc(N)nc1=O`, the IC50 in series [1] came out at 1200 nM.

For the origin of these results see ChEMBL document CHEMBL2021855, “Hepatitis C RNA-dependent RNA polymerase inhibitors: a review of structure-activity and resistance relationships; different scaffolds and mutations” (Bioorg Med Chem, 2012).
